According to ChEMBL document CHEMBL1126407, “-Lactam peptides as potential inhibitors of the HIV gp120-CD4 interaction” (Bioorg Med Chem Lett, 1992):
Active and inactive are the calls of the source. The rule behind the calls is not given here.

Experiments:
[1] = target: Envelope glycoprotein gp160 (Human immunodeficiency virus type 1 group M subtype B (isolate HXB2)(HIV-1)) (UniProt P04578); assay: Tested for inhibition of HIV CD4-gp120 interaction in an ELISA based binding assay using recombinant gp120 and soluble CD4 up to a concentration of 550 uM; No inhibition
[2] = target: Envelope glycoprotein gp160 (Human immunodeficiency virus type 1 group M subtype B (isolate HXB2)(HIV-1), UniProt P04578); assay: Tested for inhibition of HIV gp120-CD4 interaction in an ELISA based binding assay using recombinant CD4-gp120
[3] = target: Envelope glycoprotein gp160 (Human immunodeficiency virus type 1 group M subtype B (isolate HXB2)(HIV-1)) (UniProt P04578); assay: Tested for inhibition of HIV CD4-gp120 interaction in an ELISA based binding assay using recombinant gp120 and soluble CD4 up to a concentration of 350 uM; No inhibition

SMILES | inhibition [3] | also measured
COC(=O)[C@H](Cc1ccccc1)NC(=O)[C@H]1/C(=C/CO)O[C@@H]2CC(=O)N21 | – | inhibition [1]: inactive
COC(=O)C(=O)N1CCC[C@@H]1C(=O)N[C@H](Cc1ccccc1)C(=O)OCc1ccccc1 | – | IC50 [2]: 250 µM
CC(C)C[C@H](NC(=O)[C@H](Cc1ccccc1)NC(=O)[C@H]1/C(=C/CO)O[C@@H]2CC(=O)N21)C(=O)OCc1ccccc1 | inactive | –
COC(=O)[C@H](Cc1ccccc1)NC(=O)[C@@H]1N2C(=O)[C@@H](N)[C@H]2SC1(C)C | inactive | –
